System: MCH receptors
Assay: MCH receptor activity class (method not given)
[1] = class by percent of control at 10^-7 M or IC50
[2] = activity class 1-3: percent of control at 10^-7 M or IC50
[3] = MCH receptor activity class 1-3 (percent of control at 10^-7 M or IC50)
[4] = class by percent of control at 10^−7 M or IC50

Question: Which class [1] does the source give for `Cc1ccc([N+](=O)[O-])cc1NC(=O)N[C@H]1CC[C@@H](Nc2nc3c(c(N(C)C)n2)CCCC3)CC1` [compound 1715] here?
Answer: 3 (Class 3 The value of percent of control at 10^−7 M was more than 60% or the value of IC50 was more than 200 nM.)

Question: With `CN(C)c1ccnc(N[C@H]2CC[C@@H](NC(=O)NCc3ccc(F)cc3)CC2)n1` [compound 2245] as the molecule, how does the class [1] read?
Answer: 3 (Class 3 The value of percent of control at 10^−7 M was more than 60% or the value of IC50 was more than 200 nM.)

Question: Which class [2] does the source give for `CCOC(=O)NC[C@H]1CC[C@@H](Nc2cc(N(C)C)c3ccccc3n2)CC1` [compound 1567] here?
Answer: 3 (Class 3 The value of percent of control at 10^−7 M was more than 60% or the value of IC50 was more than 200 nM.)

Question: `CN(C)c1cc(N[C@H]2CC[C@@H](NC(=O)COc3c(Cl)cc(Cl)cc3Cl)CC2)nc2ccccc12` [compound 747] was tested. Which class [1] did it give?
Answer: 2 (Class 2: The value of percent of control at 10^−7 M was from 40% to 60% or the value of IC′50 was from 50 nM to 200 nM.)

Question: How did the class [1] turn out when `Cc1cc(C(=O)N[C@H]2CC[C@@H](Nc3cc(N(C)C)c4ccccc4n3)CC2)ccc1[N+](=O)[O-]` [compound 689, N-(cis-4-{[4-(dimethylamino)quinolin-2-yl]amino}cyclohexyl)-3-methyl-4-nitrobenzamide] was run?
Answer: 1 (Class 1: The value of percent of control at 10^−7 M was less than 40% or the value of IC50 was less than 50 nM.)

Question: `Cc1c(Cl)cccc1NC(=O)N[C@H]1CC[C@@H](Nc2nc3c(c(N(C)C)n2)CCCC3)CC1` [compound 1685] was tested. Which class [2] did it give?
Answer: 3 (Class 3 The value of percent of control at 10^−7 M was more than 60% or the value of IC50 was more than 200 nM.)

Question: How did the class [2] turn out when `CN(C)c1nc(N[C@H]2CC[C@@H](NC(=O)NC3C[C@H]3c3ccccc3)CC2)nc2c1CCCC2` (some centres unmarked) [compound 1701] was run?
Answer: 3 (Class 3 The value of percent of control at 10^−7 M was more than 60% or the value of IC50 was more than 200 nM.)

Question: Which class [3] does the source give for `CN(C)c1nc(N[C@H]2CC[C@@H](CNC(=O)Nc3c(F)cc(Br)cc3Br)CC2)nc2c1CCCC2` [compound 2463] here?
Answer: 3 (Class 3 The value of percent of control at 10^−7 M was more than 60% or the value of IC50 was more than 200 nM.)

Question: `CN(C)c1ccnc(N[C@H]2CC[C@@H](CNC(=O)Nc3cccc(Cl)c3Cl)CC2)n1` [compound 2440] was tested. Which class [3] did it give?
Answer: 1 (Class 1: The value of percent of control at 10^−7 M was less than 40% or the value of IC50 was less than 50 nM.)

Question: With `COc1ccc2[nH]c(C)c(CC(=O)N[C@H]3CC[C@@H](Nc4cc(N(C)C)c5ccccc5n4)CC3)c2c1` [compound 682, N-(cis-4-{[4-(dimethylamino)quinolin-2-yl]amino}cyclohexyl)-2-(5-methoxy-2-methyl-1H-indol-3-yl)acetamide] as the molecule, how does the class [1] read?
Answer: 2 (Class 2: The value of percent of control at 10^−7 M was from 40% to 60% or the value of IC′50 was from 50 nM to 200 nM.)

Question: Which class [1] does the source give for `Cc1c(NC(=O)N[C@H]2CC[C@@H](Nc3cc(N(C)C)c4ccccc4n3)CC2)cccc1[N+](=O)[O-]` [compound 2111] here?
Answer: 3 (Class 3 The value of percent of control at 10^−7 M was more than 60% or the value of IC50 was more than 200 nM.)

Question: Which class (class 1-3 by percent of control at 10^-7 M or IC50) does the source give for `CSc1ncccc1C(=O)N[C@H]1CC[C@@H](Nc2nc3c(c(N(C)C)n2)CCCC3)CC1` [compound 478] here?
Answer: 3 (Class 3 The value of percent of control at 10^−7 M was more than 60% or the value of IC50 was more than 200 nM.)

Question: With `CSc1ccc(NC(=O)NC[C@H]2CC[C@@H](Nc3cc(N(C)C)c4ccccc4n3)CC2)cc1` [compound 2365] as the molecule, how does the class [3] read?
Answer: 3 (Class 3 The value of percent of control at 10^−7 M was more than 60% or the value of IC50 was more than 200 nM.)

Question: How did the class [1] turn out when `CN(C)c1nc(N[C@H]2CC[C@@H](CNCc3ccc4c(c3)OCCO4)CC2)nc2c1CCCC2` [compound 1384] was run?
Answer: 3 (Class 3 The value of percent of control at 10^−7 M was more than 60% or the value of IC50 was more than 200 nM.)

Question: With `CN(C)c1cc(N[C@H]2CC[C@@H](CNC(=O)Cc3cccc4ccccc34)CC2)nc2ccccc12` [compound 216] as the molecule, how does the class [1] read?
Answer: 3 (Class 3 The value of percent of control at 10^−7 M was more than 60% or the value of IC50 was more than 200 nM.)

Question: With `Cc1cccc(CNC[C@H]2CC[C@@H](Nc3nc4c(c(N(C)C)n3)CCCC4)CC2)c1` [compound 1426] as the molecule, how does the class [1] read?
Answer: 3 (Class 3 The value of percent of control at 10^−7 M was more than 60% or the value of IC50 was more than 200 nM.)

Question: `CN(C)c1ccnc(N[C@H]2CC[C@@H](CNCCCCCCc3ccccc3)CC2)n1` [compound 1526] was tested. Which class [2] did it give?
Answer: 3 (Class 3 The value of percent of control at 10^−7 M was more than 60% or the value of IC50 was more than 200 nM.)

Question: Which class [1] does the source give for `CN(C)c1ccnc(N[C@H]2CC[C@@H](NC(=S)Nc3ccc(Cl)cc3Cl)CC2)n1` [compound 2259] here?
Answer: 3 (Class 3 The value of percent of control at 10^−7 M was more than 60% or the value of IC50 was more than 200 nM.)

Question: With `CN(C)c1nc(N[C@H]2CC[C@@H](CNC(=O)c3csc4ccccc34)CC2)nc2c1CCCC2` [compound 653] as the molecule, how does the class [1] read?
Answer: 3 (Class 3 The value of percent of control at 10^−7 M was more than 60% or the value of IC50 was more than 200 nM.)

Question: Which class [1] does the source give for `CN(C)c1ccnc(N[C@H]2CC[C@@H](NC(=O)CCC(=O)c3ccc(F)cc3)CC2)n1` [compound 846] here?
Answer: 3 (Class 3 The value of percent of control at 10^−7 M was more than 60% or the value of IC50 was more than 200 nM.)

Question: With `COc1ccc(CNC[C@H]2CC[C@@H](Nc3nc4c(c(N(C)C)n3)CCCC4)CC2)c2ccccc12` [compound 1368] as the molecule, how does the class [1] read?
Answer: 2 (Class 2: The value of percent of control at 10^−7 M was from 40% to 60% or the value of IC′50 was from 50 nM to 200 nM.)

Question: Which class [1] does the source give for `CCc1cccc2c(C(CC(=O)c3ccc(C(C)(C)C)cc3)C(=O)N[C@H]3CC[C@@H](Nc4nccc(N(C)C)n4)CC3)c[nH]c12` (relative stereo) [compound 860] here?
Answer: 3 (Class 3 The value of percent of control at 10^−7 M was more than 60% or the value of IC50 was more than 200 nM.)

Question: How did the class [1] turn out when `CN(C)c1ccnc(N[C@H]2CC[C@@H](NC(=O)c3cc(C(C)(C)C)c(O)c(C(C)(C)C)c3)CC2)n1` [compound 924] was run?
Answer: 1 (Class 1: The value of percent of control at 10^−7 M was less than 40% or the value of IC50 was less than 50 nM.)

Question: With `Cc1cc(N(C)C)nc(N[C@H]2CC[C@@H](CNC(=O)c3ccc(C(F)(F)F)cc3)CC2)n1` [compound 2758] as the molecule, how does the class [4] read?
Answer: 2 (Class 2: The value of percent of control at 10^−7 M was from 40% to 60% or the value of IC′50 was from 50 nM to 200 nM.)

Question: `CC(C(=O)N[C@H]1CC[C@@H](Nc2nccc(N(C)C)n2)CC1)c1ccc(N2Cc3ccccc3C2=O)cc1` (relative stereo) [compound 849] was tested. Which class [1] did it give?
Answer: 3 (Class 3 The value of percent of control at 10^−7 M was more than 60% or the value of IC50 was more than 200 nM.)

Question: How did the class [2] turn out when `COc1ccccc1OC(=O)NC[C@H]1CC[C@@H](Nc2nc3c(c(N(C)C)n2)CCCC3)CC1` [compound 1604] was run?
Answer: 3 (Class 3 The value of percent of control at 10^−7 M was more than 60% or the value of IC50 was more than 200 nM.)

Question: Which class [4] does the source give for `Cc1cc(N(C)C)nc(N[C@H]2CC[C@@H](NC(=O)c3ccc(F)c(F)c3)CC2)n1` [compound 2988, N-(cis-4-{[4-(dimethylamino)-6-methylpyrimidin-2-yl]amino}cyclohexyl)-3,4-difluorobenzamide] here?
Answer: 1 (Class 1: The value of percent of control at 10^−7 M was less than 40% or the value of IC50 was less than 50 nM.)

Question: How did the class [1] turn out when `COc1cc(OC)cc(C(=O)N[C@H]2CC[C@@H](Nc3nccc(N(C)C)n3)CC2)c1` [compound 294, N-(cis-4-{[4-(dimethylamino)pyrimidin-2-yl]amino}cyclohexyl)-3,5-dimethoxybenzamide] was run?
Answer: 1 (Class 1: The value of percent of control at 10^−7 M was less than 40% or the value of IC50 was less than 50 nM.)

Question: For `Cc1ccc2occ(CN[C@H]3CC[C@@H](Nc4nc5c(c(N(C)C)n4)CCCC5)CC3)c(=O)c2c1` [compound 1348], which class [1] is on record?
Answer: 3 (Class 3 The value of percent of control at 10^−7 M was more than 60% or the value of IC50 was more than 200 nM.)

Question: Which class [1] does the source give for `CN(C)c1cc(N[C@H]2CC[C@@H](NC(=O)c3csc([N+](=O)[O-])c3)CC2)nc2ccccc12` [compound 767, N-(cis-4-{[4-(dimethylamino)quinolin-2-yl]amino}cyclohexyl)-5-nitrothiophene-3-carboxamide] here?
Answer: 1 (Class 1: The value of percent of control at 10^−7 M was less than 40% or the value of IC50 was less than 50 nM.)

Question: For `CN(C)c1ccnc(N[C@H]2CC[C@@H](NC(=O)c3ccccc3Sc3ccccc3C#N)CC2)n1` [compound 875], which class [1] is on record?
Answer: 3 (Class 3 The value of percent of control at 10^−7 M was more than 60% or the value of IC50 was more than 200 nM.)

Question: Which class [1] does the source give for `CN(C)c1ccnc(N[C@H]2CC[C@@H](NC(=O)Cc3ccccc3Br)CC2)n1` [compound 298] here?
Answer: 3 (Class 3 The value of percent of control at 10^−7 M was more than 60% or the value of IC50 was more than 200 nM.)

Question: `Cc1cc(CN[C@H]2CC[C@@H](Nc3nc4c(c(N(C)C)n3)CCCC4)CC2)cc(C)c1O` [compound 1344] was tested. Which class [1] did it give?
Answer: 3 (Class 3 The value of percent of control at 10^−7 M was more than 60% or the value of IC50 was more than 200 nM.)

Question: For `CN(C)c1cc(N[C@H]2CC[C@@H](NC[C@@H](COCc3ccccc3)OCc3ccccc3)CC2)nc2ccccc12` [compound 1453], which class [1] is on record?
Answer: 3 (Class 3 The value of percent of control at 10^−7 M was more than 60% or the value of IC50 was more than 200 nM.)

Question: For `CN(C)c1nc(N[C@H]2CC[C@@H](NC(=O)CCc3ccccc3O)CC2)nc2c1CCCC2` [compound 955], which class [1] is on record?
Answer: 2 (Class 2: The value of percent of control at 10^−7 M was from 40% to 60% or the value of IC′50 was from 50 nM to 200 nM.)

Question: For `CN(C)c1ccnc(N[C@H]2CC[C@@H](NC(=O)c3csc([N+](=O)[O-])c3)CC2)n1` [compound 906, N-(cis-4-{[4-(dimethylamino)pyrimidin-2-yl]amino}cyclohexyl)-5-nitrothiophene-3-carboxamide], which class [1] is on record?
Answer: 1 (Class 1: The value of percent of control at 10^−7 M was less than 40% or the value of IC50 was less than 50 nM.)

Question: For `CN(C)c1ccnc(N[C@H]2CC[C@@H](CNC(=O)Cc3csc4ccccc34)CC2)n1` [compound 948], which class [1] is on record?
Answer: 1 (Class 1: The value of percent of control at 10^−7 M was less than 40% or the value of IC50 was less than 50 nM.)

Question: `C=CCOC(=O)NC[C@H]1CC[C@@H](Nc2nc3c(c(N(C)C)n2)CCCC3)CC1` [compound 1610] was tested. Which class [2] did it give?
Answer: 3 (Class 3 The value of percent of control at 10^−7 M was more than 60% or the value of IC50 was more than 200 nM.)

Reference: US20050197350A1, “Novel quinoline, tetrahydroquinazoline, and pyrimidine derivatives and methods of treatment related to the use thereof” (TAISHO PHARMACEUTICAL CO., LTD., priority 2003, published 2005)
